Source: ChEMBL document CHEMBL4613226, “Drug Metabolism by the Mitochondrial Amidoxime Reducing Component (mARC): Rapid Assay and Identification of New Substrates” (J Med Chem, 2020)
Each block holds one compound with its values, some of them ahead of it.

How the values were obtained:
Type in all cases: ADME
[1] = target: T1, Mitochondrial amidoxime-reducing component 1 (Homo sapiens, UniProt Q5VT66); assay: Substrate activity at human mARC1 expressed in Escherichia coli assessed as turnover rates at 500 uM pre-incubated for 3 mins followed by NADH addition and measured after 15 mins by UV-Visible spectroscopy based NADH assay; details: 0.25 h
T1 sequence (Q5VT66 whole entry): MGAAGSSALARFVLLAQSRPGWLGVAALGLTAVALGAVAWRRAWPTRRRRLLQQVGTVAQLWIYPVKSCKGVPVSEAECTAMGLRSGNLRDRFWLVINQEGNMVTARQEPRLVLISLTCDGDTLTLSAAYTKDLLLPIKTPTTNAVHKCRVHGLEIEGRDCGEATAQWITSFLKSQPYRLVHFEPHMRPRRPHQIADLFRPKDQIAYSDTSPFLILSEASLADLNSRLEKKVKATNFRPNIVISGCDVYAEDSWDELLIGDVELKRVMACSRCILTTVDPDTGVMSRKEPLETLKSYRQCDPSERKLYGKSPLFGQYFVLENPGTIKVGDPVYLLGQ

[2] = target: T2, Mitochondrial amidoxime reducing component 2 (Homo sapiens, UniProt Q969Z3); assay: Substrate activity at human mARC2 expressed in Escherichia coli assessed as turnover rates at 500 uM pre-incubated for 3 mins followed by NADH addition and measured after 15 mins by UV-Visible spectroscopy based NADH assay; details: 0.25 h
T2 sequence (Q969Z3 whole entry): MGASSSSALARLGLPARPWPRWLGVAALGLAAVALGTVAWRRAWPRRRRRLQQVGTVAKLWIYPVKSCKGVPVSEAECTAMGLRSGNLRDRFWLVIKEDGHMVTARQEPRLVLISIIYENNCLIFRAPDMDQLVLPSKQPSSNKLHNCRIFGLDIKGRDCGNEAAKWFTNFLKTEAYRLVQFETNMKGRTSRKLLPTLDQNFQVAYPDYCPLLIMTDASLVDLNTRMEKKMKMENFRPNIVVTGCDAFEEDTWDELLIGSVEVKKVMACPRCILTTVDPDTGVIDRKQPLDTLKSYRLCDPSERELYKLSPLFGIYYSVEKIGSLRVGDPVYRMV

[3] = target: T1, Mitochondrial amidoxime-reducing component 1; assay: Substrate activity at human mARC1 expressed in Escherichia coli assessed as turnover rates at 500 uM pre-incubated for 3 mins followed by NADH addition and measured after 15 mins by LC-MS analysis based assay; details: 0.25 h
[4] = target: T2, Mitochondrial amidoxime reducing component 2; assay: Substrate activity at human mARC2 expressed in Escherichia coli assessed as turnover rates at 500 uM pre-incubated for 3 mins followed by NADH addition and measured after 15 mins by LC-MS analysis based assay; details: 0.25 h
[5] = target: T1, Mitochondrial amidoxime-reducing component 1; assay: Substrate activity at human mARC1 expressed in Escherichia coli assessed as turnover rates at 3 mM pre-incubated for 3 mins followed by NADH addition and measured after 15 mins by UV-Visible spectroscopy based NADH assay; details: 0.25 h, 3000 µM
[6] = target: T2, Mitochondrial amidoxime reducing component 2; assay: Substrate activity at human mARC2 expressed in Escherichia coli assessed as turnover rates at 3 mM pre-incubated for 3 mins followed by NADH addition and measured after 15 mins by UV-Visible spectroscopy based NADH assay; details: 0.25 h, 3000 µM
[7] = target: T1, Mitochondrial amidoxime-reducing component 1; assay: Substrate activity at human mARC1 expressed in Escherichia coli assessed as turnover rates at 3 mM pre-incubated for 3 mins followed by NADH addition and measured after 15 mins by LC-MS analysis based assay; details: 0.25 h, 3000 µM
[8] = target: T2, Mitochondrial amidoxime reducing component 2; assay: Substrate activity at human mARC2 expressed in Escherichia coli assessed as turnover rates at 3 mM pre-incubated for 3 mins followed by NADH addition and measured after 15 mins by LC-MS analysis based assay; details: 0.25 h, 3000 µM
[9] = target: T1, Mitochondrial amidoxime-reducing component 1; assay: Substrate activity at human mARC1 expressed in Escherichia coli assessed as turnover rates at 1 mM pre-incubated for 3 mins followed by NADH addition and measured after 15 mins by UV-Visible spectroscopy based NADH assay; details: 0.25 h, 1000 µM
[10] = target: T2, Mitochondrial amidoxime reducing component 2; assay: Substrate activity at human mARC2 expressed in Escherichia coli assessed as turnover rates at 1 mM pre-incubated for 3 mins followed by NADH addition and measured after 15 mins by UV-Visible spectroscopy based NADH assay; details: 0.25 h, 1000 µM
[11] = target: T1, Mitochondrial amidoxime-reducing component 1; assay: Substrate activity at human mARC1 expressed in Escherichia coli assessed as turnover rates at 1 mM pre-incubated for 3 mins followed by NADH addition and measured after 15 mins by LC-MS analysis based assay; details: 0.25 h, 1000 µM
[12] = target: T2, Mitochondrial amidoxime reducing component 2; assay: Substrate activity at human mARC2 expressed in Escherichia coli assessed as turnover rates at 1 mM pre-incubated for 3 mins followed by NADH addition and measured after 15 mins by LC-MS analysis based assay; details: 0.25 h, 1000 µM
[13] = target: T1, Mitochondrial amidoxime-reducing component 1; assay: Substrate activity at human mARC1 expressed in Escherichia coli assessed as turnover rates at 200 uM pre-incubated for 3 mins followed by NADH addition and measured after 15 mins by UV-Visible spectroscopy based NADH assay; details: 0.25 h
[14] = target: T2, Mitochondrial amidoxime reducing component 2; assay: Substrate activity at human mARC2 expressed in Escherichia coli assessed as turnover rates at 200 uM pre-incubated for 3 mins followed by NADH addition and measured after 15 mins by UV-Visible spectroscopy based NADH assay; details: 0.25 h
[15] = target: T1, Mitochondrial amidoxime-reducing component 1; assay: Substrate activity at human mARC1 expressed in Escherichia coli assessed as turnover rates at 200 uM pre-incubated for 3 mins followed by NADH addition and measured after 15 mins by LC-MS analysis based assay; details: 0.25 h
[16] = target: T2, Mitochondrial amidoxime reducing component 2; assay: Substrate activity at human mARC2 expressed in Escherichia coli assessed as turnover rates at 200 uM pre-incubated for 3 mins followed by NADH addition and measured after 15 mins by LC-MS analysis based assay; details: 0.25 h

- Activity ([1]; BLD = below limit of detection): Bld
- Activity ([2]; BLD = below limit of detection): Bld
- Activity ([3]; BLD = below limit of detection): Bld
- Activity ([4]; BLD = below limit of detection): Bld
SMILES: Cc1oncc1C(=O)Nc1ccc(C(F)(F)F)cc1 [LEFLUNOMIDE]

- Activity [5]: 354.7 nmol/mg/min
- Activity [6]: 142.1 nmol/mg/min
- Activity [7]: 354.8 nmol/mg/min
- Activity [8]: 184.2 nmol/mg/min
SMILES: O=c1nc(NO)ccn1[C@@H]1O[C@H](CO)[C@@H](O)[C@H]1O [N-HYDROXYCYTIDINE]

- Activity [5]: 9.5 nmol/mg/min
- Activity ([6]; BLD = below limit of detection): Bld
- Activity [7]: 3.1 nmol/mg/min
- Activity ([8]; BLD = below limit of detection): Bld
SMILES: C[N+](C)([O-])CCC=C1c2ccccc2CCc2ccccc21 [AMITRIPTYLINOXIDE]

- Activity ([9]; BLD = below limit of detection): Bld
- Activity ([10]; BLD = below limit of detection): Bld
- Activity ([11]; BLD = below limit of detection): Bld
- Activity ([12]; BLD = below limit of detection): Bld
SMILES: NS(=O)(=O)Cc1noc2ccccc12 [ZONISAMIDE]

- Activity [1]: 951.2 nmol/mg/min
- Activity [2]: 947.1 nmol/mg/min
- Activity [3]: 988 nmol/mg/min
- Activity [4]: 967.5 nmol/mg/min
SMILES: N=C(NO)N/N=C/c1c(Cl)cccc1Cl [GUANOXABENZ]

- Activity [9]: 845.7 nmol/mg/min
- Activity [10]: 271.6 nmol/mg/min
- Activity [11]: 954.5 nmol/mg/min
- Activity [12]: 291 nmol/mg/min
SMILES: OC[C@H]1O[C@@H](n2cnc3c(NO)ncnc32)[C@H](O)[C@@H]1O

SMILES: CN(CCCC(=O)c1cccnc1)N=O
- Activity ([5]; BLD = below limit of detection): Bld
- Activity ([6]; BLD = below limit of detection): Bld
- Activity ([7]; BLD = below limit of detection): Bld
- Activity ([8]; BLD = below limit of detection): Bld

- Activity [5]: 499.8 nmol/mg/min
- Activity [6]: 394.3 nmol/mg/min
- Activity [7]: 549.6 nmol/mg/min
- Activity [8]: 373.9 nmol/mg/min
SMILES: NC(=NO)c1ccccc1 [BENZAMIDOXIME]

- Activity [5]: 7.2 nmol/mg/min
- Activity [6]: 27.8 nmol/mg/min
SMILES: O=CN(O)CCCP(=O)([O-])O.[Na+] [FOSMIDOMYCIN SODIUM]

SMILES: C=C1C(=O)O[C@@H]2CC[N+]3([O-])CC=C(COC(=O)[C@](C)(O)[C@H](C)[C@H]1C)[C@H]23 (stereo not given in full)
- Activity [9]: 12.7 nmol/mg/min
- Activity ([10]; BLD = below limit of detection): Bld
- Activity [11]: 17.6 nmol/mg/min
- Activity ([12]; BLD = below limit of detection): Bld

- Activity [9]: 6.1 nmol/mg/min
- Activity [10]: 8.3 nmol/mg/min
- Activity [11]: 2.3 nmol/mg/min
- Activity [12]: 0.9 nmol/mg/min
SMILES: CC(c1cc2ccccc2s1)N(O)C(N)=O (stereo not given) [ZILEUTON]

- Activity [5]: 209.9 nmol/mg/min
- Activity ([6]; BLD = below limit of detection): Bld
- Activity [7]: 239.3 nmol/mg/min
- Activity ([8]; BLD = below limit of detection): Bld
SMILES: NC(=O)c1ccc[n+]([O-])c1

- Activity ([5]; BLD = below limit of detection): Bld
- Activity ([6]; BLD = below limit of detection): Bld
- Activity ([7]; BLD = below limit of detection): Bld
- Activity ([8]; BLD = below limit of detection): Bld
SMILES: Cc1cn([C@H]2C[C@H](N=[N+]=[N-])[C@@H](CO)O2)c(=O)[nH]c1=O [ZIDOVUDINE]

- Activity [13]: 10.4 nmol/mg/min
- Activity [14]: 24.3 nmol/mg/min
- Activity [15]: 4.1 nmol/mg/min
- Activity [16]: 17.9 nmol/mg/min
SMILES: NS(=O)(=O)NCCNc1nonc1C(=NO)Nc1ccc(F)c(Br)c1 [EPACADOSTAT]

- Activity [5]: 471.5 nmol/mg/min
- Activity [6]: 34.4 nmol/mg/min
SMILES: NC(=O)NO [HYDROXYUREA]

- Activity ([13]; BLD = below limit of detection): Bld
- Activity ([14]; BLD = below limit of detection): Bld
- Activity ([15]; BLD = below limit of detection): Bld
- Activity ([16]; BLD = below limit of detection): Bld
SMILES: O=C1Cc2cc(CCN3CCN(c4nsc5ccccc45)CC3)c(Cl)cc2N1 [ZIPRASIDONE]
